Measurements from patent US20250115600A1, “COVALENT MODIFIERS OF AKT1 AND USES THEREOF” (Terremoto Biosciences, Inc., priority 2022, published 2025).

How the values were obtained:
Assay in all cases: Live cell target engagement (NanoBRET) in HEK293 cells
Type in all cases: cell-based
AKT1 E17K = AKT1 E17K (Homo sapiens (Human), UniProt P31749, E17K); conditions: for IC50: HEK293, 2 hours at 37° C.
AKT2 = AKT2 (Homo sapiens (Human), UniProt P31751); conditions: HEK293, 2 hours at 37° C.
AKT1 WT = AKT1 WT (Homo sapiens (Human), UniProt P31749); conditions: HEK293, 2 hours at 37° C.
Sequence of AKT1 WT (P31749 whole entry): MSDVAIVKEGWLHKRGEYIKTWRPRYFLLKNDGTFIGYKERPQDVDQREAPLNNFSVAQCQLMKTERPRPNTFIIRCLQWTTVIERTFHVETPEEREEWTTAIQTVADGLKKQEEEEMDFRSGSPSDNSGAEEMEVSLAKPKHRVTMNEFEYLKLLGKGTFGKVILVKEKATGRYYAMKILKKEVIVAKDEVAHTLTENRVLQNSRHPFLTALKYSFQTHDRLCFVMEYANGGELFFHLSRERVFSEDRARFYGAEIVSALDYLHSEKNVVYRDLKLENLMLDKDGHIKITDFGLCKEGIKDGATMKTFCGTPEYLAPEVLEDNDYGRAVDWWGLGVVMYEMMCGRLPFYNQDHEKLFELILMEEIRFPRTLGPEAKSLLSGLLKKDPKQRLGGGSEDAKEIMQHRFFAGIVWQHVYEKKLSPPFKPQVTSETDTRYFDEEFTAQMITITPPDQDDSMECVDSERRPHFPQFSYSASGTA

Sequence of AKT1 E17K (P31749 whole entry E17K): as the sequence (P31749 whole entry) above, with E17K counted along it
Sequence of AKT2 (P31751 whole entry): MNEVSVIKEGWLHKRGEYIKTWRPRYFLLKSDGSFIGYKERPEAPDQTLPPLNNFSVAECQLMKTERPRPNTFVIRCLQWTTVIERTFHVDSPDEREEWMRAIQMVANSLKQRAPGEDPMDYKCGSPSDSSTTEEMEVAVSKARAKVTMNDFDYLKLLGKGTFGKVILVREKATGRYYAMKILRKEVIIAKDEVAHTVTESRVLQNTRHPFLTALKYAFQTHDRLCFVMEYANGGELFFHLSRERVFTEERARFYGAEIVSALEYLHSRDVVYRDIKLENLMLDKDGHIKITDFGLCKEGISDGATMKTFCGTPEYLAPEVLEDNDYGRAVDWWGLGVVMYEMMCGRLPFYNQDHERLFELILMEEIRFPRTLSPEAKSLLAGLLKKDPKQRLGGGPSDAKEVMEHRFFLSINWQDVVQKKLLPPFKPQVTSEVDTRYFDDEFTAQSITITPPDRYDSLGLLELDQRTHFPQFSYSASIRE

| Structure (SMILES) | AKT1 E17K IC50: Selectivity vs AKT1 WT (AKT1 E17K) | AKT1 E17K IC50: Selectivity vs AKT2 (AKT1 E17K) | IC50 (AKT1 E17K) | IC50 (AKT2) | IC50 (AKT1 WT) |
| --- | --- | --- | --- | --- | --- |
| Nc1ncccc1-c1nc2ccc(C3CC3)nc2n1-c1ccc(CNC(=O)Cc2ccc(C=O)c(O)c2)cc1 [Compound 66, N-({4-[2-(2-aminopyridin-3-yl)-5-cyclopropylimidazo[4,5-b]pyridin-3-yl]phenyl}methyl)-2-(4-formyl-3-hydroxyphenyl)acetamide] | 3.5 | 830 | < 100 nM | > 500 nM | < 100 nM |
| Nc1ncccc1-c1nc2ccc(-c3cccnc3)nc2n1-c1ccc(CNC(=O)C2(c3ccc(C=O)c(O)c3F)CC2)cc1 [Compound 67, N-(4-(2-(2-aminopyridin-3-yl)-5-(pyridin-3-yl)-3H-imidazo[4,5-b]pyridin-3-yl)benzyl)-1-(2-fluoro-4-formyl-3-hydroxyphenyl)cyclopropane-1-carboxamide] | 27 | >240 | < 100 nM | > 500 nM | > 500 nM |
| Nc1ncccc1-c1nc2ccc(-c3cccnc3)nc2n1-c1ccc(CNC(=O)Cc2ccc(C=O)c(O)c2)cc1 [Compound 68, N-(4-(2-(2-aminopyridin-3-yl)-5-(pyridin-3-yl)-3H-imidazo[4,5-b]pyridin-3-yl)benzyl)-2-(4-formyl-3-hydroxyphenyl)acetamide] | 4 | 150 | < 100 nM | > 500 nM | < 100 nM |
| Nc1ncccc1-c1nc2ccc(-c3ccccc3)nc2n1-c1ccc(CNC(=O)C2(c3ccc(C=O)c(O)c3)CC2)cc1 [Compound 69, N-({4-[2-(2-aminopyridin-3-yl)-5-phenylimidazo[4,5-b]pyridin-3-yl]phenyl}methyl)-1-(4-formyl-3-hydroxyphenyl)cyclopropane-1-carboxamide] | 16 | >160 | < 100 nM | > 500 nM | > 500 nM |
| Nc1ncccc1-c1nc2ccc(-c3cccnc3)nc2n1-c1ccc(CNC(=O)C2(c3ccc(C=O)c(O)c3)CC2)cc1 [Compound 70, N-({4-[2-(2-aminopyridin-3-yl)-5-(pyridin-3-yl)imidazo[4,5-b]pyridin-3-yl]phenyl}methyl)-1-(4-formyl-3-hydroxyphenyl)cyclopropane-1-carboxamide] | 7.7 | 65 | < 100 nM | > 500 nM | 100 to 500 nM |
| Nc1ncccc1-c1nc2ccc(-c3cccnc3)nc2n1-c1ccc(CNC(=O)c2ccc(O)c(C=O)c2)cc1 [Compound 71, N-(4-(2-(2-aminopyridin-3-yl)-5-(pyridin-3-yl)-3H-imidazo[4,5-b]pyridin-3-yl)benzyl)-3-formyl-4-hydroxybenzamide] | 5.8 | 37 | < 100 nM | 100 to 500 nM | < 100 nM |
| COc1c(CCNCc2ccc(-n3c(-c4cccnc4N)nc4ccc(-c5ccccc5)nc43)cc2)ccc(C=O)c1O [Compound 76, 4-{2-[({4-[2-(2-aminopyridin-3-yl)-5-phenylimidazo[4,5-b]pyridin-3-yl]phenyl}methyl)amino]ethyl}-2-hydroxy-3-methoxybenzaldehyde] | 1.6 | 4.7 | 100 to 500 nM | 100 to 500 nM | 100 to 500 nM |
| Nc1ncccc1-c1nc2ccc(-c3ccccc3)nc2n1-c1ccc(CNC(=O)Cc2cnc(C=O)c(O)c2)cc1 [Compound 77, N-(4-(2-(2-aminopyridin-3-yl)-5-phenyl-3H-imidazo[4,5-b]pyridin-3-yl)benzyl)-2-(6-formyl-5-hydroxypyridin-3-yl)acetamide] | 4.3 | 39 | < 100 nM | > 500 nM | 100 to 500 nM |
| Nc1ncccc1-c1nc2cccnc2n1-c1ccc(CNC(=O)C(F)(F)c2ccc(C=O)c(O)c2)cc1 [Compound 78, N-(4-(2-(2-aminopyridin-3-yl)-3H-imidazo[4,5-b]pyridin-3-yl)benzyl)-2,2-difluoro-2-(4-formyl-3-hydroxyphenyl)acetamide] | 2.2 | 43 | < 100 nM | > 500 nM | 100 to 500 nM |
| Nc1ncccc1-c1nc2ccc(-c3cccnc3)nc2n1-c1ccc(CNC(=O)Cc2ccc(C=O)c(O)c2F)cc1 [Compound 79, N-({4-[2-(2-aminopyridin-3-yl)-5-(pyridin-3-yl)imidazo[4,5-b]pyridin-3-yl]phenyl}methyl)-2-(2-fluoro-4-formyl-3-hydroxyphenyl)acetamide] | 4.4 | 88 | < 100 nM | > 500 nM | < 100 nM |
| Nc1ncccc1-c1nc2cccnc2n1-c1ccc(CNCCc2ccc(C=O)c(C(F)F)c2)cc1 [Compound 80, 4-{2-[({4-[2-(2-aminopyridin-3-yl)imidazo[4,5-b]pyridin-3-yl]phenyl}methyl)amino]ethyl}-2-(difluoromethyl)benzaldehyde] | 0.47 | 2.5 | 100 to 500 nM | > 500 nM | 100 to 500 nM |
| Nc1ncccc1-c1nc2ccc(-c3ccccc3)nc2n1-c1ccc(CNc2cc(-c3ccc(O)c(C=O)c3)ccn2)cc1 [Compound 81, 5-(2-((4-(2-(2-aminopyridin-3-yl)-5-phenyl-3H-imidazo[4,5-b]pyridin-3-yl)benzyl)amino)pyridin-4-yl)-2-hydroxybenzaldehyde] | 0.51 | 1.7 | 100 to 500 nM | 100 to 500 nM | 100 to 500 nM |
| Nc1ncccc1-c1nc2cccnc2n1-c1ccc(CNC(=O)C2(c3ccc(C=O)c(O)c3)CC2)cc1 [Compound 82, N-(4-(2-(2-aminopyridin-3-yl)-3H-imidazo[4,5-b]pyridin-3-yl)benzyl)-1-(4-formyl-3-hydroxyphenyl)cyclopropane-1-carboxamide] | 29 | >400 | < 100 nM | > 500 nM | > 500 nM |
| Nc1ncccc1-c1nc2cccnc2n1-c1ccc(CNC(=O)c2ccc(O)c(C=O)c2)cc1 [Compound 83, N-({4-[2-(2-aminopyridin-3-yl)imidazo[4,5-b]pyridin-3-yl]phenyl}methyl)-3-formyl-4-hydroxybenzamide] | 10 | 99 | < 100 nM | > 500 nM | 100 to 500 nM |
| Nc1ncccc1-c1nc2cccnc2n1-c1ccc(CNC(=O)c2ccc(C=O)c(O)c2)cc1 [Compound 84, N-({4-[2-(2-aminopyridin-3-yl)imidazo[4,5-b]pyridin-3-yl]phenyl}methyl)-4-formyl-3-hydroxybenzamide] | 0.22 | 4.8 | > 500 nM | > 500 nM | 100 to 500 nM |
| Nc1ncccc1-c1nc2ccc(-c3ccccc3)nc2n1-c1ccc(CNC(=O)c2ccc(C=O)c(O)c2F)cc1 [Compound 85, N-({4-[2-(2-aminopyridin-3-yl)-5-phenylimidazo[4,5-b]pyridin-3-yl]phenyl}methyl)-2-fluoro-4-formyl-3-hydroxybenzamide] | 1.3 | 6.5 | < 100 nM | 100 to 500 nM | < 100 nM |
| Nc1ncccc1-c1nc2cccnc2n1-c1ccc(CCC(=O)Nc2ccc(C=O)c(O)c2)cc1 [Compound 86, 3-(4-(2-(2-aminopyridin-3-yl)-3H-imidazo[4,5-b]pyridin-3-yl)phenyl)-N-(4-formyl-3-hydroxyphenyl)propanamide] | 25 | 74 | < 100 nM | > 500 nM | > 500 nM |
| Nc1ncccc1-c1nc2ccc(-c3ccccc3)nc2n1-c1ccc(CNc2cc(-c3ccc(C=O)c(O)c3)ccn2)cc1 [Compound 87, 4-(2-((4-(2-(2-aminopyridin-3-yl)-5-phenyl-3H-imidazo[4,5-b]pyridin-3-yl)benzyl)amino)pyridin-4-yl)-2-hydroxybenzaldehyde] | 0.72 | 1.6 | > 500 nM | > 500 nM | > 500 nM |
| Nc1ncccc1-c1nc2ccc(-c3cccnc3)nc2n1-c1ccc(CNCCc2ccc(C=O)c(O)c2F)cc1 [Compound 88, 4-(2-((4-(2-(2-aminopyridin-3-yl)-5-(pyridin-3-yl)-3H-imidazo[4,5-b]pyridin-3-yl)benzyl)amino)ethyl)-3-fluoro-2-hydroxybenzaldehyde] | 3.9 | 55 | < 100 nM | 100 to 500 nM | < 100 nM |
| CC(=O)Nc1c(C=O)ccc(CCNCc2ccc(-n3c(-c4cccnc4N)nc4cccnc43)cc2)c1F [Compound 89, N-(3-{2-[({4-[2-(2-aminopyridin-3-yl)imidazo[4,5-b]pyridin-3-yl]phenyl}methyl)amino]ethyl}-2-fluoro-6-formylphenyl)acetamide] | 0.14 | 2.1 | > 500 nM | > 500 nM | 100 to 500 nM |
| CC(=O)Nc1c(C=O)ccc(CCNCc2ccc(-n3c(-c4cccnc4N)nc4ccc(-c5ccccc5)nc43)cc2)c1F [Compound 90, N-(3-{2-[({4-[2-(2-aminopyridin-3-yl)-5-phenylimidazo[4,5-b]pyridin-3-yl]phenyl}methyl)amino]ethyl}-2-fluoro-6-formylphenyl)acetamide] | 0.65 | 1.6 | < 100 nM | < 100 nM | < 100 nM |
